Results from paper PMC4737580 (Bioorganic & medicinal chemistry letters, 2010).

What was measured:
[1] = target: furin (Homo sapiens, UniProt P09958); assay: Furin inhibition, Ki from Dixon plots; format: biochemical
[2] = general statement, no reference given; cited from earlier work

Sequence of furin (P09958 108-794): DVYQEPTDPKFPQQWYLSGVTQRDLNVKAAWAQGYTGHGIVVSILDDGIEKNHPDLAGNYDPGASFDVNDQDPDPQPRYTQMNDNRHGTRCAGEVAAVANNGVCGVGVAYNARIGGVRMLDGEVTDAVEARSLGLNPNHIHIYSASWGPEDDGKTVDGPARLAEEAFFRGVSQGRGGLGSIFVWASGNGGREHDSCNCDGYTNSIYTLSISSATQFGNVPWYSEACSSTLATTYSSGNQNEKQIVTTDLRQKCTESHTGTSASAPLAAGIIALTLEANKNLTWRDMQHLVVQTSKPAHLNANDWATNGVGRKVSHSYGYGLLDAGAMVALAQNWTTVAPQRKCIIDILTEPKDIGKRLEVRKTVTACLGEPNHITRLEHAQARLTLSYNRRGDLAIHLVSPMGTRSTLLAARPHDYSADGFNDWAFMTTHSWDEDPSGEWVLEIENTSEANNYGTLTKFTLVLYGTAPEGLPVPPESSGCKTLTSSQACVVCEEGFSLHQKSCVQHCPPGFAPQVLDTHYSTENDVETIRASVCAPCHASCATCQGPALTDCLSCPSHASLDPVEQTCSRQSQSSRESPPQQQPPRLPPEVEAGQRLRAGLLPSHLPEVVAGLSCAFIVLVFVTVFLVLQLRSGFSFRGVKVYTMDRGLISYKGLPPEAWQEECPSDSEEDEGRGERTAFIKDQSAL

N=C(N)N/N=C/c1ccccc1OCc1ccc(Cl)cc1 [Compound 2]
Ki ([1]; Ki, Ki values from Dixon plots): 25 µM

C/C(=N\NC(=N)N)c1cc(NC(=O)CCCNC(=N)N)cc(/C(C)=N/NC(=N)N)c1 [Compound 17]
fold improved Ki compared to 1 ([1]; relative to compound 1): approximately 4 fold

N=C(N)N [guanidine]
pKa [2]: approximately 13
